In DBAASP one finds MIC data, which are given here for seven molecules.

Molecules are shown by their SMILES. ≈ marks a conversion by molar mass, not a printed value. Where only a bound is given, the exact number is not on record here.

By MIC is commonly meant the lowest concentration that inhibits growth of the organism. A lower MIC goes with greater potency.

Test systems include Bacillus cereus AS1.126; Escherichia coli AS1.349; Escherichia coli K91BK; Escherichia coli UB1005.
Common to all, as to test: ≥ marks a high value that may be exact or a test limit, other limits are often not marked, values filed in µg/mL are converted to µM
Test [1] deals with Enterobacter cloacae CGMCC 1.58.
For test [2], the system named is Enterococcus faecalis CGMCC 1.595.
Test [3] deals with Enterococcus faecium CGMCC 1.2334.
The test system of test [4] is Klebsiella pneumoniae subsp. pneumoniae CGMCC 1.176.
Test [5] deals with Proteus mirabilis CICC 22931.
Test [6] relates to Pseudomonas aeruginosa CGMCC 1.860.
Test [7] relates to Staphylococcus aureus AS1.72.
In test [8] the test system is Staphylococcus epidermidis CICC 23664.
For test [9], the system named is Bacillus subtilis DSM 347.
The test system of test [10] is Escherichia coli DH5alpha.
Test [11] concerns Franconibacter helveticus DSM 18396.
Test [12] deals with Kocuria rhizophila DSM 348.
The subject of test [13] is Bacillus anthracis Sterne 34F2.
Test [14] concerns Bacillus subtilis var. niger ATCC 9372.
For test [15], the system named is Bacillus subtilis CMCC 63501.
In test [16] the test system is Enterococcus faecalis ATCC 29212.
In test [17] the test system is Escherichia coli ATCC 25922.
The test system of test [18] is Salmonella enterica subsp. enterica serovar Pullorum C79-13.
The subject of test [19] is Salmonella enterica subsp. enterica serovar Typhimurium ATCC 14028.
Test [20] relates to Staphylococcus aureus ATCC 29213.
The subject of test [21] is Staphylococcus epidermidis ATCC 12228.
The subject of test [22] is Acinetobacter baumannii CICC 22934.
Test [23] has as its system Klebsiella aerogenes CGMCC 1.876.
For test [24], the system named is Lactococcus lactis AS1.1690.
Test [25] deals with Burkholderia thailandensis.

`CC[C@H](C)[C@H](N)C(=O)N[C@@H](CCCCN)C(=O)N[C@@H](CCCCN)C(=O)N[C@H](C(=O)N[C@@H](Cc1c[nH]c2ccccc12)C(=O)N[C@@H](CO)C(=O)N[C@@H](CCCCN)C(=O)N[C@H](C(=O)N[C@@H](CCCCN)C(=O)N[C@@H](CCCCN)C(=O)N[C@@H](Cc1c[nH]c2ccccc12)C(=O)N[C@@H](CC(C)C)C(=O)N[C@@H](CCCCN)C(=O)O)[C@@H](C)CC)[C@@H](C)CC` [IKKIWSKIKKWLK]: the minimum inhibitory concentration (MIC) in the test with Bacillus cereus AS1.126 is 18.8 µM (≈ 31.9 µg/mL); in test [1], no less than 100 µM; in test [2], 2.5 µM (≈ 4.25 µg/mL); in [3] it was 5 µM (≈ 8.5 µg/mL); against Escherichia coli AS1.349, 2.5 µM (≈ 4.25 µg/mL); in [4] it was no less than 100 µM. In addition, the MIC in test [5] is no less than 100 µM; in test [6], 15.6 µM (≈ 26.5 µg/mL); in [7], 2.5 µM (≈ 4.25 µg/mL); in test [8], 2.5 µM (≈ 4.25 µg/mL).
Turning to `CC[C@H](C)[C@H](NC(=O)CN)C(=O)NCC(=O)N[C@@H](CCCCN)C(=O)N[C@@H](Cc1ccccc1)C(=O)N[C@@H](CC(C)C)C(=O)N[C@@H](Cc1cnc[nH]1)C(=O)N[C@@H](CO)C(=O)N[C@@H](C)C(=O)N[C@@H](CCCCN)C(=O)N[C@@H](CCCCN)C(=O)N[C@@H](Cc1ccccc1)C(=O)NCC(=O)N[C@@H](CCCCN)C(=O)N[C@@H](C)C(=O)N[C@@H](Cc1ccccc1)C(=O)N[C@H](C(=O)N[C@@H](C)C(=O)N[C@@H](CCC(=O)O)C(=O)N[C@H](C(=O)N[C@@H](CCSC)C(=O)N[C@@H](CC(N)=O)C(=O)N[C@@H](CO)C(=O)O)[C@@H](C)CC)C(C)C` [GIGKFLHSAKKFGKAFVAEIMNS], the MIC in test [9] is 1 µM (≈ 2.48 µg/mL); in [10], 16 µM (≈ 39.7 µg/mL); in test [11], 8 µM (≈ 19.8 µg/mL); in test [12] it was 8 µM (≈ 19.8 µg/mL).
For `CC(=O)NCC(=O)N[C@@H](Cc1c[nH]c2ccccc12)C(=O)NCC(=O)N[C@@H](CO)C(=O)N[C@@H](Cc1ccccc1)C(=O)N[C@@H](Cc1ccccc1)C(=O)N[C@@H](CCCCN)C(=O)N[C@@H](CCCCN)C(=O)N[C@@H](C)C(=O)N[C@@H](C)C(=O)N[C@@H](Cc1cnc[nH]1)C(=O)N[C@H](C(=O)NCC(=O)N[C@@H](CCCCN)C(=O)N[C@@H](Cc1cnc[nH]1)C(=O)N[C@H](C(=O)NCC(=O)N[C@@H](CCCCN)C(=O)N[C@@H](C)C(=O)N[C@@H](C)C(=O)N[C@@H](CC(C)C)C(=O)N[C@H](C(=O)N[C@@H](Cc1cnc[nH]1)C(=O)N[C@@H](Cc1ccc(O)cc1)C(=O)N[C@@H](CC(C)C)C(N)=O)[C@@H](C)O)C(C)C)C(C)C` [GWGSFFKKAAHVGKHVGKAALTHYL], the values for the MIC (in test [13]; in test [14]; against Escherichia coli K91BK) were no less than 79.4 µM, 17.7 µM (≈ 48.7 µg/mL) and no less than 100 µM, respectively.
`CC[C@H](C)[C@H](NC(=O)[C@H](C)NC(=O)[C@H](CC(C)C)NC(=O)[C@@H]1CCCN1C(=O)[C@@H](NC(=O)[C@H](CC(C)C)NC(=O)[C@H](CCC(N)=O)NC(=O)[C@H](Cc1c[nH]c2ccccc12)NC(=O)[C@H](Cc1ccccc1)NC(=O)[C@H](CCCN=C(N)N)NC(=O)[C@@H](N)CCCCN)C(C)C)C(=O)N[C@@H](CCCCN)C(=O)N[C@H](C(=O)N[C@@H](Cc1ccc(O)cc1)C(=O)N[C@@H](CCCN=C(N)N)C(=O)N[C@@H](C)C(=O)N[C@@H](Cc1c[nH]c2ccccc12)C(=O)N[C@@H](CCCCN)C(=O)N[C@@H](CCCN=C(N)N)C(=O)N[C@@H](CCCN=C(N)N)C(=O)O)[C@@H](C)CC` [KRFWQLVPLAIKIYRAWKRR]: the MIC in test [15] is 8 µM (≈ 21 µg/mL); in test [16], 4 µM (≈ 10.5 µg/mL); in test [17], 2 µM (≈ 5.26 µg/mL); against Escherichia coli UB1005, 2 µM (≈ 5.26 µg/mL); in test [18], 8 µM (≈ 21 µg/mL); in test [19], 4 µM (≈ 10.5 µg/mL). The MIC in test [20] and in test [21] was 4 µM (≈ 10.5 µg/mL) throughout.
As to `CC[C@H](C)[C@H](NC(=O)CN)C(=O)NCC(=O)N[C@@H](CCCCN)C(=O)N[C@@H](Cc1ccccc1)C(=O)N[C@@H](CC(C)C)C(=O)N[C@@H](Cc1cnc[nH]1)C(=O)N[C@@H](CO)C(=O)N[C@@H](C)C(=O)N[C@@H](CCCCN)C(=O)N[C@@H](CCCCN)C(=O)N[C@@H](C)C(=O)NCC(=O)N[C@@H](CCCCN)C(=O)N[C@@H](C)C(=O)N[C@@H](Cc1ccccc1)C(=O)N[C@H](C(=O)NCC(=O)N[C@@H](CCC(=O)O)C(=O)N[C@H](C(=O)N[C@@H](CCSC)C(=O)N[C@@H](CC(N)=O)C(=O)N[C@@H](CO)C(=O)O)[C@@H](C)CC)C(C)C` [GIGKFLHSAKKAGKAFVGEIMNS], the MIC is 8 µM (≈ 19.1 µg/mL) in [9], no less than 64 µM in test [10], no less than 64 µM in [11] and no less than 64 µM in test [12].
As to `CC(C)[C@H](NC(=O)[C@H](CCCCN)NC(=O)[C@@H](N)CO)C(=O)N[C@@H](Cc1c[nH]c2ccccc12)C(=O)N[C@@H](CCCN=C(N)N)C(=O)N[C@@H](Cc1cnc[nH]1)C(=O)N[C@@H](Cc1c[nH]c2ccccc12)C(=O)N[C@@H](CCCN=C(N)N)C(=O)N[C@@H](CCCN=C(N)N)C(=O)N[C@@H](Cc1ccccc1)C(=O)N[C@@H](Cc1c[nH]c2ccccc12)C(=O)N[C@@H](Cc1cnc[nH]1)C(=O)N[C@@H](CCCN=C(N)N)C(=O)N[C@@H](C)C(=O)N[C@@H](Cc1cnc[nH]1)C(=O)N[C@@H](CCCN=C(N)N)C(=O)N[C@@H](CCCCN)C(=O)N[C@@H](CCCCN)C(=O)O` [SKVWRHWRRFWHRAHRKK], the minimum inhibitory concentration (MIC) was 7.81 µM (≈ 20 µg/mL) in test [22]; 3.91 µM (≈ 10 µg/mL) against Bacillus cereus AS1.126; no less than 100 µM in [1]; 1.81 µM (≈ 4.63 µg/mL) in [2]; 2.9 µM (≈ 7.42 µg/mL) in test [3]; 6.25 µM (≈ 16 µg/mL) with Escherichia coli AS1.349. The MIC in test [23] was no less than 100 µM; in test [4], no less than 100 µM; in [24], 1.98 µM (≈ 5.06 µg/mL); in test [6], 1.59 µM (≈ 4.07 µg/mL); in test [7], 3.86 µM (≈ 9.87 µg/mL); in [8] it was 7 µM (≈ 17.9 µg/mL).
As to `CC[C@H](C)[C@H](NC(=O)CNC(=O)[C@H](CCCCN)NC(=O)[C@H](CCCN=C(N)N)NC(=O)[C@@H](NC(=O)[C@@H](NC(=O)[C@H](CCCN=C(N)N)NC(=O)[C@H](CCCN=C(N)N)NC(=O)[C@H](CC(C)C)NC(=O)[C@H](CC(N)=O)NC(=O)[C@H](CCCCN)NC(C)=O)[C@@H](C)CC)[C@@H](C)CC)C(=O)N[C@@H](Cc1cnc[nH]1)C(=O)N[C@H](C(=O)N[C@H](C(=O)N[C@@H](CCCCN)C(=O)N[C@@H](CCCCN)C(=O)N[C@@H](Cc1ccc(O)cc1)C(=O)NCC(N)=O)[C@@H](C)CC)[C@@H](C)CC` [KNLRRIIRKGIHIIKKYG], the MIC is no less than 100 µM in [13], 12.5 µM (≈ 28.1 µg/mL) in [14], no less than 100 µM in [25] and no less than 100 µM against Escherichia coli K91BK.
